Reference: US20110288152A1, “PSMA BINDING LIGAND-LINKER CONJUGATES AND METHODS FOR USING” (Purdue Research Foundation, priority 2008, published 2011)
Starred links: 1 amine or outer side, 2 acyl side, 3 side chain; linkers in the order of their positions; H or OH if unused. Non-standard residues stand in square brackets, D forms with d. Residues, ends and D or L forms follow the SMILES beside them. Groups on a side chain read outwards from the residue. γGlu = O=C(O)[C@H](CCC(=O)[*:2])N[*:1]; Dap = NC[C@H](N)C(=O)O; Aoc = NCCCCCCCC(=O)O; CO = O=C([*:1])[*:2]

Tests used:
[1] = target: T1, PSMA on LNCaP cells (Homo sapiens, UniProt Q04609); experiment: Spacer-dependent binding studies of DUPA-Linker-99mTc compounds on LNCaP cells; settings: 37° C., 1 hour, 0 nM-1280 nM, read-out: Kd from cell bound radioactivity versus concentration of DUPA-Linker-99Tc imaging agents
T1 construct: LNCaP cells (a human prostate cancer cell line over-expressing PSMA); host or cells: LNCaP
T1 sequence (Q04609 whole entry): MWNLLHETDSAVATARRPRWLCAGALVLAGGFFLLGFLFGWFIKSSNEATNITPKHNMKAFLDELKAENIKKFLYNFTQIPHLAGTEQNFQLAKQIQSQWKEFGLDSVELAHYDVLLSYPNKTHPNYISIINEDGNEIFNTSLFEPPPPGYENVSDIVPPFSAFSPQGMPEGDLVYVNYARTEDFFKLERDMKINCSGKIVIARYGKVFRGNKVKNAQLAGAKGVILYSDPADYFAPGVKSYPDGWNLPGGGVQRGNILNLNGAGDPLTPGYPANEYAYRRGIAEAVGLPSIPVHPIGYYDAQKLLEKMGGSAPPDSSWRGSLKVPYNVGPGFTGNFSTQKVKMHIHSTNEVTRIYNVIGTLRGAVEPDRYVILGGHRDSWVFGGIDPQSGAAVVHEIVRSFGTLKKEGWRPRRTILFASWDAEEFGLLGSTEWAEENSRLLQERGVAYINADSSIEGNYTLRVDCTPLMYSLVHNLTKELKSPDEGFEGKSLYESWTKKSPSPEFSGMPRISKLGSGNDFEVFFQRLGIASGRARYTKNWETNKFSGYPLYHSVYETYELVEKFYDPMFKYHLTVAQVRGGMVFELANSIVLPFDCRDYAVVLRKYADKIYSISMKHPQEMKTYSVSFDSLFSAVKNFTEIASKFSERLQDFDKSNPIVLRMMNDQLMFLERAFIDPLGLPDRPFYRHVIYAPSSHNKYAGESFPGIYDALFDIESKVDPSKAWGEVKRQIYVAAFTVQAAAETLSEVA
Experimental: Cells were then incubated with increasing concentrations of SK60-99 mTc (zero atom spacer), SK62-99 mTc (7 atom spacer), SK28-99 mTc (14 atom spacer), SK38-99 mTc (16 atom spacer) and SK57-99 mTc (24 atom spacer) from 0 nM-1280 nM (triplicates for each concentration) in a 5%-CO2 atmosphere at 37° C. for 1 hour. Also, in separate plates, cells was incubated with 50 uM PMPA in a 5%-CO2 atmosphere at 37° C. for 30 minutes and then incubated with increasing concentration of SK60-99 mTc (zero atom spacer), SK62-99 mTc (7 atom spacer), SK28-99 mTc (14 atom spacer), SK38-99 mTc (16 atom spacer) and SK57-99 mTc (24 atom spacer) from 0 nM-1280 nM (triplicates for each concentration) in a 5%-CO2 atmosphere at 37° C. for 1 hour (competition studies; data not shown). […] The plot of cell bound radioactivity verses concentration of the radiolabeled compound was used to calculate the Kd value. The plot of % saturation verses concentration of the radiolabeled compound as well as the plot for Kd verses spacer length are shown (FIGS. 4 and 5).

[2] = target: PSMA (Homo sapiens, UniProt Q04609); settings: urea PSMA ligands of formula drawing 51, R^1 varied; cited from earlier work
PSMA, sequence (Q04609 whole entry, species assumed): as the sequence (Q04609 whole entry) above

[3] = target: T1, PSMA on LNCaP cells; experiment: In vitro binding studies using LNCaP cells and SK28-99mTc, with and without excess PMPA; settings: 37° C., 1 hour, 0 nM-450 nM, read-out: Kd from cell bound radioactivity versus concentration
Experimental: Cells of one 24-well plate were incubated with increasing concentrations of SK28-99 mTc from 0 nM-450 nM (triplicates for each concentration) in a 5%-CO2 atmosphere at 37° C. for 1 hour. Cells of the second 24-well plate were incubated with 50 uM PMPA in a 5%-CO2 atmosphere at 37° C. for 30 minutes, then incubated with increasing concentrations of SK28-99 mTc from 0 nM-450 nM (triplicates for each concentration) in a 5%-CO2 atmosphere at 37° C. for 1 hour (competition study). […] The competition study was used to determine the binding specificity of the ligand (DUPA) to the PSMA (FIG. 1).
LNCaP cells (150,000 cells/well) were seeded onto 24-well Falcon plates and allowed to form confluent monolayers over 48 h. Spent medium in each well was replaced with fresh medium (0.5 mL) containing increasing concentrations of DUPA-99 mTc in the presence (▴) or absence (▪) of excess PMPA. After incubating for 1 h at 37° C., cells were rinsed with culture medium (2×1.0 mL) and tris buffer (1×1.0 mL) to remove any unbound radioactivity. After suspending cells in tris buffer (0.5 mL), cell bound radioactivity was counted using a γ-counter (Packard, Packard Instrument Company). The dissociation constant (KD) was calculated using a plot of cell bound radioactivity versus the concentration of the radiotracer using nonlinear regression in GraphPad Prism 4. Error bars represent 1 standard deviation (n=3). […]

[4] = target: T1, PSMA on LNCaP cells; experiment: Quantification of PSMA molecules on LNCaP cells (cell bound radioactivity at saturation); format: cell-based; settings: for cell bound radioactivity at the saturation point: 1 hour
Experimental: Cells were then incubated with increasing concentrations of SK28-99 mTc from 0 nM-450 nM (triplicates for each concentration) in a 5%-CO2 atmosphere at 4° C. or at 37° C. for 1 hour. […] The radioactivity of a 30 nM sample of SK28-99 mTc (20 uL) was counted. At 4° C. (to prevent endocytosis of PSMA), the number of moles in the 30 nM sample=30 nM×20 uL=(30×10-9 mol/L)×(20×10-6 L)=6×10-13 mol. The number of atoms in the 30 nM sample=(6×10-13 mol)×(6.023×1023 atom/mol)=3.6×1011 atom. The radio count of 20 uL of the 30 nM sample=20477 cpm (cpm/atom=3.6×1011/20477=1.76×107). The cell bound radioactivity at the saturation point at 4° C.=12 000 cpm. The number of atoms at the saturation point=(1.76×107 atom)×(12 000 cpm). The number of cells/well=245,000.
The cell bound radioactivity at the saturation point at 37° C.=33,000 cpm (approximately three fold higher than at 4° C.).

| Structure (SMILES) | Kd [1] [nM] | Ki [2] [nM] | also measured |
| --- | --- | --- | --- |
| O=C(O)CCC(NC(=O)NC(CS)C(=O)O)C(=O)O (stereo not shown) [drawing 52 (R = H)] | – | 6.9 | – |
| N[C@@H](CNC(=O)[C@H](Cc1ccccc1)NC(=O)[C@H](Cc1ccccc1)NC(=O)CCCCCCCNC(=O)CC[C@H](NC(=O)N[C@@H](CCC(=O)O)C(=O)O)C(=O)O)C(=O)N[C@@H](CC(=O)O)C(=O)N[C@@H](CS)C(=O)O [SK28-^99mTc, metal not drawn] (H-[Dap]([Phe-Phe-Aoc-γGlu-CO-Glu])-Asp-Cys-OH) | 15 | – | Kd [3]: 18.1 nM; cell bound radioactivity at saturation, 37° C. relative to 4° C. [4]: approximately three; cell bound radioactivity at the saturation point ([4]; 4° C.): 12 000 cpm; cell bound radioactivity at the saturation point ([4]; 37° C.): 33,000 cpm |
| CC(C)(C)SCC(NC(=O)NC(CCC(=O)O)C(=O)O)C(=O)O (stereo not shown) [drawing 52 (R = tert-Bu)] | – | 29 | – |

The next lines start with results.

| Kd [1] [nM] | Structure (SMILES) | Ki [2] [nM] | also measured |
| --- | --- | --- | --- |
| 40 | N[C@@H](CNC(=O)CC[C@H](NC(=O)[C@H](Cc1ccccc1)NC(=O)CCCCCCCNC(=O)CC[C@H](NC(=O)N[C@@H](CCC(=O)O)C(=O)O)C(=O)O)C(=O)O)C(=O)N[C@@H](CC(=O)O)C(=O)N[C@@H](CS)C(=O)O [16-atom linker] (H-[Dap]([γGlu-Phe-Aoc-γGlu-CO-Glu])-Asp-Cys-OH) | – | – |
| 171 | N[C@@H](CNC(=O)CC[C@H](NC(=O)N[C@@H](CCC(=O)O)C(=O)O)C(=O)O)C(=O)N[C@@H](CC(=O)O)C(=O)N[C@@H](CS)C(=O)O [0-atom linker] (H-[Dap]([γGlu-CO-Glu])-Asp-Cys-OH) | – | – |
| 68 | N[C@@H](CNC(=O)[C@H](Cc1ccccc1)NC(=O)CC[C@H](NC(=O)CC[C@H](NC(=O)N[C@@H](CCC(=O)O)C(=O)O)C(=O)O)C(=O)O)C(=O)N[C@@H](CC(=O)O)C(=O)N[C@@H](CS)C(=O)O [7-atom linker] (H-[Dap]([Phe-γGlu-γGlu-CO-Glu])-Asp-Cys-OH) | – | – |
